In publication PMC10319809, “Chronic UCN2 treatment desensitizes CRHR2 and improves insulin sensitivity” (Nature Communications, 2023):
Several values for one entry are separate records, joined by “and”; a condition that tells them apart may be missing. Equal values may be shown once. Where no end group is shown, it is not given here.

How the values were obtained:
hCRHR2α Gq = target: T1, hCRHR2α Gq (Homo sapiens, UniProt Q13324); test: ebBRET EMTA, Gq biosensor; type: cell-based; conditions: HEK293 cells, CRHR2a, n = 2 independent experiments
T1 construct: expressed in transfected cells; host or cells: HEK293 cells (Millipore Sigma), transient PEI co-transfection with biosensor plasmids at Domain Therapeutics
T1 sequence (Q13324 1-411): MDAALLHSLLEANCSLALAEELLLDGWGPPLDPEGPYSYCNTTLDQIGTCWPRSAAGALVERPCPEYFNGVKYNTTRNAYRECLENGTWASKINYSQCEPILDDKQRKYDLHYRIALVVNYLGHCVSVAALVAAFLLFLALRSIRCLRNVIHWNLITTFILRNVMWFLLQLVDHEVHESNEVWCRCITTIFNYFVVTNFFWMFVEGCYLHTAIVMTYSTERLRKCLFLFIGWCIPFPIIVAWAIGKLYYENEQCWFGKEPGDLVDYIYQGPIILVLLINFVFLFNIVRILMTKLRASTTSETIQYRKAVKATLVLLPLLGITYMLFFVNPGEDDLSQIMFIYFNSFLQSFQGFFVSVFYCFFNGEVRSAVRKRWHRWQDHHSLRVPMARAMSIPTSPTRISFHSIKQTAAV
Protocol: Typically, GPCR desensitization is carried out through the recruitment of β-Arrestins or alternative G-proteins to the receptor. To identify whether these proteins are recruited to CRHR2 in response to UCN2, enhanced bystander bioluminescence resonance energy transfer (ebBRET)-based effector membrane translocation assays (EMTA) were carried out in HEK293 cells[28],[29]. Cells were co-transfected with plasmids expressing unmodified CRHR2a (alpha isoform) and one of various pathway-specific biosensors. […]
Effector membrane translocation biosensor assays (bioSensAll®) were conducted at Domain Therapeutics NA Inc. (Montreal, QC, Canada) and described in cells[28],[29]. […] Briefly, DNA and PEI were diluted separately in 150 mM NaCl, mixed and then incubated for at least 20 min at room temperature (note: salmon sperm DNA (Invitrogen) was used to adjust the total amount of DNA transfected to a final quantity of 1 ug per mL of cell culture to be transfected). During the 20-minute incubation, HEK293 cells were detached, counted and resuspended into cell culture medium to a final density of 350,000 cells per mL. […] Cells were then incubated at room temperature for 10 min and BRET readings subsequently collected with a 0.4 s integration time on a Synergy NEO plate reader (BioTek Instruments, Inc., USA; filters: 400 nm/70 nm, 515 nm/20 nm). […]

[1] = Circulating (serum/plasma) UCN2 by ELISA; type: in vivo, mouse
Protocol: Plasma UCN2 and UCN3 measurements were made via ELISA according to manufacturer’s instructions (Kamiya Biomedical Company, Seattle, WA). Blood was collected via intracardiac stick. For ob/ob and db/db studies, blood was collected during ad lib feeding. For acute UCN2 dosing, blood was collected 20 min after dosing with UCN2 (Bachem, Bubendorf, Switzerland) dissolved in saline.

[2] = tested on: AKT1S1, IRS1, AKT phosphorylation; test: Western blot of p-AKT1S1, p-IRS1, p-AKT in gastrocnemius muscle; type: in vivo, mouse
Protocol: Animal tissues were snap-frozen in liquid nitrogen and stored at −80 °C. Frozen tissues were homogenized in ice-cold RIPA buffer (Sigma Aldrich, St. Louis, MO), and protein concentrations were determined using a BCA protein assay (Thermo Fisher Scientific, Waltham, MA). Protein extracts were separated on NuPAGE 4–20% Bis-Tris gels (Bio-Rad, Hercules, CA) and blotted onto PVDF membranes (Bio-Rad, Hercules, CA). Membranes were blocked for 1 h at room temperature in TBST (0.1%) containing 5% milk. Membranes were then incubated overnight at 4 °C with primary antibodies against pSer183-AKT1S1, total AKT1S1, pSer3-IRS1, total IRS1, pSer473-AKT, and total AKT (Cell Signaling, Danvers, MA #5936, #2610, #2385, #2382, #4060, and #4691, respectively) diluted 1:1000. Following three washing steps with TBST (0.1%), membranes were incubated with HRP-conjugated secondary antibodies for 1 h at room temperature. After thorough washing, proteins were visualized with SuperSignal West Dura Extended Duration Substrate (Thermo Fisher Scientific, Waltham, MA) on the Bio-Rad ChemiDoc MP. Immunoreactive bands were quantified using Image J Software (NIH).

In the case of “IVLSLDVPIGLLQILLEQARARAAREQATTNARILARVGHC-NH2 (C-terminus assumed) [UCN2, Urocortin 2]”, the Gq recruitment (hCRHR2α Gq) is reported as “not recruited”, the “Serum [UCN2]” value ([1]; WT mice, 20 min after 1 mg/kg UCN2 IP, individual animals (Fig. 2A)) is reported as -7.638 log[M] and -7.693 log[M] and -7.457 log[M] and -7.301 log[M] and -7.207 log[M] and -7.27 log[M] and -7.25 log[M] and -7.2975 log[M] and the “circulating concentration of UCN2, average” value ([1]; mice, single IP 1 mg/kg, 20 min after injection, n = 8) is reported as −7.4 log[M]. The level at time molar at 20 min ([1]; mouse, plasma, mice, single IP 1 mg/kg, 20 min after injection, n = 8, read-out: circulating concentration of UCN2, average) was 40 nM, the “Relative pAKT1s1/AKT1s1” value ([2]; Fig 5F, UCN2 vs Saline, individual samples) was 0.4889 and 0.4355 and 0.6101 and 0.3366 and the “Relative pIRS1/IRS1” value ([2]; Fig 5G, UCN2 vs Saline, individual samples) was 0.5347 and 0.4912 and 0.4136 and 0.3459. For the same substance, the “Relative pAKT/AKT” value ([2]; Fig 5H, UCN2 vs Saline, individual samples) was 0.5139 and 0.5838 and 0.5951 and 0.5852 and the “AKT1S1, IRS1 and AKT phosphorylation, acute treatment” value ([2]; gastrocnemius, acute UCN2, Western blot) was “dephosphorylation”.
